The record followed here is PMC9112550, “Optimization of the antimicrobial peptide Bac7 by deep mutational scanning” (BMC Biology, 2022).

Assay [1] deals with E. coli TOP10. The experiment in a line: Membrane damage assay in MHB II (GFP loss, PI uptake). It counts as cell-based. The following applies: n = 3.
The subject of assay [2] is E. coli TOP10. The assay can be described thus: Deep mutational scanning, site-saturation Bac7_1-23 library, intracellular self-screening with NGS. It counts as cell-based. The following applies: intracellular expression. As to the method:
A focused strategy was pursued to generate diversity at positions 5, 18, 19, and 20 in the Bac7_1-23 peptide. […] Degeneration was introduced by using the QuikChange technique, amplifying the pBAD plasmid containing the Bac7_1-23 gene using a mixture of 20 oligonucleotides (Additional file 1: Table S1) at a final concentration of 0.3 μM and Phusion® High-Fidelity PCR Master Mix in HF buffer. The amplification was performed using 20 cycles of 98°C for 10 s, 60°C for 15 s, and 72°C for 10 s. The PCR product was treated with the enzyme Dpn1 to remove the template plasmid and subsequently purified. The purified product was used to transform 20 μl of CloneCatcher™ Gold DH5G Electrocompetent E. coli (Genlantis, Burlington, USA) cells using electroporation.
To assess the antimicrobial activity of multiple peptides in parallel when expressed intracellularly in E. coli TOP10, previously prepared aliquots containing E. coli plasmid libraries created by either random mutagenesis or site-saturation mutagenesis were used. For both approaches, three aliquots containing approximately 500 million cells each of E. coli TOP10 harboring peptide-encoding DNA sequences on the pBAD plasmid were thawed and added to three 1-l baffled shake flasks containing 100 ml of LB medium + 100 μg ml^−1 carbenicillin. The cultures were grown for roughly 7 h at 37°C.

A further assay has as its system E. coli ATCC 25922. The experiment in a line: In vivo efficacy, murine septicemia model. The following applies: 10 CD-1 mice, up to 3 days. As to the method: CD-1 mice (7 weeks old, 27–28 g female) were used (Charles River, France). These animals were housed for a week of acclimation period before the experiment in a protected area in the ‘Centre de Zootechnie de l’Université de Bourgogne’ (Biosafety level 2 facility) and fed ad libitum according to the current recommendations by the European Institute of Health. Housing took place in rooms where a 12-h/12 h light/dark cycle is applied, the temperature ranges from 18 to 21°C and the relative humidity from 45 to 65%. The animal facility is authorized by the French authorities (Agreement N° C 21 464 04 EA). […]
For animal experiments, Bac7PS was synthesized at Genscript as acetate salt and with a purity of 92%. […] First, the maximum tolerated dose (MTD) for the peptide was determined by testing different peptide doses in 8 groups with 5 animals per group. The peptide solution was administered once by intraperitoneal (IP) injection with a volume of between 94 and 240 μl (depending on the weight of the animal and the dosage) and the animals were monitored for 2 h following the injection, then 6 to 8 h later, and then once or twice a day, depending on the clinical status, up to 5 days post-injection. […] As endpoint, the wellbeing and survival rate, on a twice daily based evaluation for up to 3 days, was monitored.

[3] abbreviates: approximately 16-fold above its MIC (~35 μM).
The mark [4] stands for this setting: at the MIC up to 8-fold higher concentrations.

Where no end group is shown, it is not given here.

As to RRIRIRPPRLPRPRPRPYFMPRP [Bac7PS], the PI-positive cells in the assay on E. coli TOP10 [1] (setting [3]) is recorded as ~ 3%; in the assay on E. coli TOP10 [1] (setting [4]), ~ 1%. For the same sequence, the “cells that lost GFP” value in the assay on E. coli TOP10 [1] (setting [3]) was 26%. For the same sequence, in the assay on E. coli TOP10 [1] (setting [4]), the “cells that retained GFP levels” value is recorded as ~ 99%. The “antimicrobial activity in the library” value in the assay with E. coli TOP10 [2] is given as “the most active”. For the same sequence, the survival is listed as 60% in the assay on E. coli ATCC 25922 (10 mg kg^−1 IP twice (1 and 4 h post-infection)); 80% in the assay on E. coli ATCC 25922 (30 mg kg^−1 IP twice (1 and 4 h post-infection)).
